{
  "source": "patent US20230338336A1",
  "about": "“METHODS OF TREATING CONDITIONS RELATED TO THE S1P1 RECEPTOR” (Arena Pharmaceuticals, Inc., priority 2020, published 2023)",
  "key": {"[1]": {"tested_on": "microdissected human scalp hair follicles (HF)", "assay": "Hair follicle organ culture model, non-inflammatory condition (ex vivo)", "type": "cell-based", "description": "A hair follicle organ culture model was used to analyze the direct effects of Compound 1 on HF physiology in a non-inflammatory condition. Human full thickness scalp skin from four healthy donors was cultured ex vivo and treated in four groups with 11 HF's per groups: 1. vehicle (DMSO control), 2. 10 nM Compound 1, 3. 100 nM Compound 1, 4. 1 μM Compound 1. Before treatment began, […] full length microdissected HF's were isolated, pictures and length measurements were taken of the HF's, and the HF's were cultured in WCM. On Days 1, 3, and 5 pictures of HF elongation were taken, the medium was changed, and treatment in groups 1-4 occurred. Days 2 and 4 were rest days. Additionally, on Day 2 three HF's per group were frozen for RNAseq twenty-four hours after the previous day's treatment. On Day 6, pictures were taken of the HF elongation, the culture was closed, and 8 HF's per group were embedded in optimal cutting temperature compound (OCT compound) for further microscopic immunohistological analysis."}, "[2]": {"tested_on": "human full thickness scalp skin / hair follicles", "assay": "Human full thickness scalp skin model, AA-like inflammatory environment, with and without IFNγ (ex vivo)", "type": "cell-based", "description": "To evaluate the effects of Compound 1 on hair follicle physiology and pathology in an AA-like inflammatory environment, a human full thickness scalp skin model was used. Scalp biopsies from two healthy donors were cultured ex vivo and treated with tofacitinib (400 nM) and Compound 1 (10 nM, 100 nM, 1000 nM) in the presence and absence of IFNγ, a key pathological cytokine involved in AA development. 5 mm skin cubes with hair were acquired from a donor (Donor 1) and a donor (Donor 2). Ten groups were tested with one skin punch per group: 1. Vehicle (DMSO control) 2. Tofacitinib (400 nM), 3. 10 nM Compound 1, 4. 100 nM Compound 1 5. 1 μM Compound 1, 6. Vehicle (DMSO control)+100 IU IFNγ, 7. Tofacitinib (400 nM)+100 IU IFNγ, 8. 10 nM Compound 1+100 IU IFNγ, 9. 100 nM Compound 1+100 IU IFNγ 10. 1 μM Compound 1+100 IU IFNγ. On Day 0, isolation of 10×6mm punches with hair was performed. On Days 1, 3, and 5 the medium was changed and treatment with groups 1-10 occurred. Days 2 and 4 were rest days. On Day 6, the culture was closed and embedded in OCT Compound for further microscopic analysis."}, "[3]": {"assay": "Phase 2 dose-ranging study in UC patients and open-label extension", "type": "in vivo, human", "settings": "UC patients", "description": "(§1) Compound 1, or a pharmaceutically acceptable salt, solvate, or hydrate thereof, is an orally administered, selective, synthetic sphingosine 1-phosphate (S1P) receptor 1, 4, 5 modulator. […] Its safety and tolerability have been evaluated in Phase 1 studies with healthy adult subjects at single doses up to 5 mg and repeated doses up to 4 mg once daily (QD)."}, "[4]": {"assay": "Safety and tolerability in clinical studies (Phase 1, healthy adult subjects)", "type": "in vivo, human", "settings": "approximately 281 adult subjects, various doses; single doses up to 5 mg, repeated doses up to 4 mg QD", "description": "as §1"}},
  "data": [
    {"compound": "O=C(O)C[C@H]1CCc2c1[nH]c1ccc(OCc3ccc(C4CCCC4)c(C(F)(F)F)c3)cc21", "note": "[Compound 1, (R)-2-(7-(4-cyclopentyl-3-(trifluoromethyl)benzyloxy)-1,2,3,4-tetrahydrocyclopenta[b]indol-3-yl)acetic acid]", "values": [
      {"measurement": "Hair cycle staging / hair cycle score (anagen phase)", "setting": "[1]; 10 nM and 100 nM, 6-day HF organ culture, vs vehicle (FIG. 7)", "value": "tendentially prolonged the anagen phase"},
      {"measurement": "MICA expression (stress signal)", "setting": "[1]; 100 nM, anagen and catagen HFs combined and anagen HFs alone (FIG. 9)", "value": "significantly reduced"},
      {"measurement": "RNAseq: genes involved in hair keratinization", "setting": "[1]; 10 nm and 100 nm groups, HFs frozen 24 h after treatment", "value": "significant up-regulation"},
      {"measurement": "MHC class I (MHC-I) expression in dermal cup, germinative hair matrix, outer root sheath", "setting": "[1]; anagen and catagen HFs combined and anagen HFs alone (FIGS. 8a, 8b)", "value": "no change"},
      {"measurement": "IFNγ-mediated MHC-I up-regulation in the dermal cup of the hair follicle", "setting": "[2]; +100 IU IFNγ (FIG. 11)", "value": "prevented"},
      {"measurement": "Hair cycle staging / hair cycle score (anagen)", "setting": "[2]; Donor 1, without IFNγ (FIG. 10)", "value": "tendentially prolonged anagen"},
      {"measurement": "Increase of CD8-S1P1+ cells showing lymphocytic morphology", "setting": "[2]; Donor 2 (FIG. 12)", "value": "prevented"},
      {"measurement": "Increase of perifollicular CD8+ cells showing lymphocytic morphology", "setting": "[2]; Donor 2 (FIG. 12)", "value": "prevented"},
      {"measurement": "Endoscopic and symptomatic improvements versus placebo", "setting": "[3]; 2 mg QD for 12 weeks", "value": "clinically meaningful and statistically significant"},
      {"measurement": "Duration of beneficial effects in open-label extension study", "setting": "[3]; up to 46 weeks", "value": "Sustained beneficial effects"},
      {"measurement": "Safety and tolerability", "setting": "[4]", "value": "safe and well-tolerated"}
    ]}
  ]
}
